Where “and” joins values, the source holds several entries; their conditions need not be identical. Equal values may be shown once. Entries after “also recorded” stand apart in the source; their conditions may differ. Read-outs that look alike come from different tables or passages of the source.
Assays:
[1] = test system: tyrosine aminotransferase (TAT) in HepG2 cells; settings: HepG2 human liver hepatocellular carcinoma cell line; cited from earlier work
[2] = olanzapine prescribing information; cited from earlier work
[3] = patients; doubled from 1.3±0.5 at baseline; Ebenbichler et al. 2003; cited from earlier work
[4] = patients, cited from earlier work; for Mean body weight increase over a period of ten weeks: Allison et al., Am J. Psychiatry 1999
[5] = for Triglycerides increase from baseline on Day 8 / Triglycerides increase from baseline on Day 15: listed as miricorilant = MIRI 600 mg/day + OLZ, unit given in Table 1, not in Table 2; for Body weight increase from baseline, percent of baseline, day 8 / Body weight increase from baseline, percent of baseline, day 15: from Table 2 with Table 1 baselines
Experimental: The dose level tested in our Phase 1b trial was 600 mg/day.
A 2-week, single-center, double-blind, randomized, placebo-controlled study was conducted in healthy male subjects age 18-55 years with BMI between 18-25 kg/m^2 and a stable body weight (defined as the Day 1 pre-dose body weight to be within ±2.0% of screening body weight). […] Food was freely available to all subjects during the study. The difference in mean change in absolute body weight after administration of OLZ+PBO compared to OLZ+MIRI was evaluated using a repeated measures model with imputation applied to missing values.
(HOMA2-IR values were calculated from fasted glucose and insulin levels using the HOMA (HOMA2 Model) Calculator® application programming interface for SAS (Oxford University 2013, available at the website www.dtu.ox.ac.uk/homacalculator)).

progesterone receptor = biological target: T1, progesterone receptor (Homo sapiens, UniProt P06401); settings: cited from earlier work
T1 sequence (P06401 1-933): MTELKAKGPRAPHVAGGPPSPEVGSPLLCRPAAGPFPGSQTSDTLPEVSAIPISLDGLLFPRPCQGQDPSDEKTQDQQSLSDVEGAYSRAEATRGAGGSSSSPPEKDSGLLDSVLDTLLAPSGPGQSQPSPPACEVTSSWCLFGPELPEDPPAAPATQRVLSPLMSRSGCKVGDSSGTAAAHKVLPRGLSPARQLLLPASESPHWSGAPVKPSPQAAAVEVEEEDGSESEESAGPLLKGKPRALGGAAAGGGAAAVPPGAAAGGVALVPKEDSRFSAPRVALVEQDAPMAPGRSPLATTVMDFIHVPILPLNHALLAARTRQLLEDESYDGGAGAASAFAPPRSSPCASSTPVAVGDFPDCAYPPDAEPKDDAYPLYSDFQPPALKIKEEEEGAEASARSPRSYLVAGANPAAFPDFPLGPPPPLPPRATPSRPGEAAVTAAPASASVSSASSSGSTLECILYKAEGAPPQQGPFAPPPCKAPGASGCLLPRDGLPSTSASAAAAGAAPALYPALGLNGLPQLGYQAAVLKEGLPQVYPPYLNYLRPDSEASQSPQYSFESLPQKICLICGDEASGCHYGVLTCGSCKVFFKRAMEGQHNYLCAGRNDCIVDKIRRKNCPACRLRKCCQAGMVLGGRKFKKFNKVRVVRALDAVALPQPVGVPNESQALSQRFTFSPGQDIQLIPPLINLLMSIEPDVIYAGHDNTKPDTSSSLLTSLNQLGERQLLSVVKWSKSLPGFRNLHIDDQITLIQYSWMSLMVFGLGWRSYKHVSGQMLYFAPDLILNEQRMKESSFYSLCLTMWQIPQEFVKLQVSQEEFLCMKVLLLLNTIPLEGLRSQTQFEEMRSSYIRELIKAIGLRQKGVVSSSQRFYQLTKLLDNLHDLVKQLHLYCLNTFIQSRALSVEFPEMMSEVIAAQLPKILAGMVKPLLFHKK

[6] = assay type: in vivo; settings: female rats; for Study day from which body weight reduction became statistically significant: treatment started Day 35
Experimental: On day 35, the rodents were randomized to 4 different interventions and remained on study until day 57. The four intervention groups were: OLZ+vehicle daily by oral gavage; OLZ+2 mg/kg/day miricorilant once daily; OLZ+1 mg/kg miricorilant twice daily; and OLZ+10 mg/kg/day miricorilant once daily. A fifth group, a vehicle-only group (n=12), was included as a control for the entirety of the 57 days.
Starting at week 6, either miricorilant (MIRI, 3 dosing regimens) or vehicle 2 was administered orally. […] The vehicle-only group was included as a control for the 8-week duration of the study. Efficacy was assessed based on body weight, food consumption, mortality, and clinical observations.
The articles were stored refrigerated between dosing.
Body weights were measured and recorded three times weekly during the acclimation period, every other day beginning on Day −1, and prior to termination on Day 57. Food consumption was measured and recorded daily beginning on Day −14. Body weights and food consumption were measured within 2 hours of the initial time on Day −1. Any changes in bodyweight greater than 15 grams (g) and changes in food consumption greater than 5 g were verified. Food jars were weighed twice for precision during food jar changes.

[7] = Hunt et al., Bioorg Med Chem Lett. 2012; cited from earlier work
[8] = healthy male subjects, listed as miricorilant = MIRI 600 mg/day + OLZ 10 mg/day, listed as olanzapine = placebo + OLZ 10 mg/day
[9] = healthy male subjects, listed as olanzapine = placebo + OLZ 10 mg/day
[10] = healthy male subjects, listed as miricorilant = olanzapine+miricorilant, listed as olanzapine = olanzapine+placebo
[11] = (1 − (A/B)) × 100, MIRI 600 mg/day + OLZ vs placebo + OLZ, healthy male subjects
[12] = healthy male subjects, day not given, listed as miricorilant = olanzapine+miricorilant, listed as olanzapine = olanzapine+placebo
[13] = Group 3: OLZ + miricorilant 1 mg/kg/dose BID
[14] = Group 4: OLZ + miricorilant 2 mg/kg/dose QD
[15] = Group 5: OLZ + miricorilant 10 mg/kg/dose QD
[16] = first week of miricorilant treatment with OLZ, P<0.01

## CC#C[C@]1(O)CC[C@H]2[C@@H]3CCC4=CC(=O)CCC4=C3[C@@H](c3ccc(N(C)C)cc3)C[C@@]21C [mifepristone]
[1]
  Effect on activity of tyrosine aminotransferase (TAT) in HepG2 cells: decreases

## Cc1cc2c(s1)Nc1ccccc1N=C2N1CCN(C)CC1 [olanzapine, reference compound]
[2]
  Adult patients with triglyceride increases of ≥50 mg/dL at 12 weeks: ~40%
  Adult patients with triglyceride increases of ≥50 mg/dL at 48 weeks: more than 60%
[3]
  HOMA-IR after 8 weeks of olanzapine treatment: 2.6±1.4 mmol/mU·L
[4]; Allison et al. 2001
  Weight gained after about 40 weeks of administration: 7 to 8 kg
[5]; [8]
  Body weight increase from baseline on Day 8: 3.5 kg and 3.49 kg
  Body weight increase from baseline on Day 15: 5.0 kg and 4.99 kg
  HOMA2-IR increase from baseline on Day 8: 1.15
  Insulin increase from baseline on Day 8: 9.14 mIU/L
  Insulin increase from baseline on Day 15: 9.65 mIU/L
[5]; [9]
  Triglycerides increase from baseline on Day 8: 1.09 mmol/L
  Triglycerides increase from baseline on Day 15: 0.62 mmol/L
[5]; [10]
  Insulin increase from baseline, percent, day 15: 127%
  Triglycerides increase from baseline, percent, day 8: 115%
  Triglycerides increase from baseline, percent, day 15: 65%
  Body weight increase from baseline, percent of baseline, day 8: 4.9%
  Body weight increase from baseline, percent of baseline, day 15: 6.9%
[5]; male, human, in vivo, 14 days
  Number of participants who discontinued the study due to elevated liver enzymes: 5

## CN1CCN(C2=Nc3cc(Cl)ccc3Nc3ccccc32)CC1 [clozapine]
[4]
  Mean body weight increase over a period of ten weeks: 4.45 kg

## O=c1[nH]c(=O)c(Cc2cccc(C(F)(F)F)c2)c([C@H]2CC[C@H](c3ccccc3)CC2)[nH]1 [miricorilant, (E)-6-(4-Phenylcyclohexyl)-5-(3-trifluoromethylbenzyl)-1H-pyrimidine-2,4-dione]
Progesterone receptor
  Affinity for the progesterone receptor: without affinity
[5]; [11]
  % reduction in OLZ-induced increase: HOMA2-IR, Day 8: 38%
  % reduction in OLZ-induced increase: HOMA2-IR, Day 15: 39%
  % reduction in OLZ-induced increase: body weight, Day 8: 25%
  % reduction in OLZ-induced increase: body weight, Day 15: 22%
  % reduction in OLZ-induced increase: insulin, Day 8: 38%
  % reduction in OLZ-induced increase: insulin, Day 15: 39%
  % reduction in OLZ-induced increase: triglycerides, Day 8: 49%
  % reduction in OLZ-induced increase: triglycerides, Day 15: 45%
[5]; OLZ+MIRI vs OLZ+PBO, MMRM, P=0.017, 95% CI [−1.94, −0.19], healthy male subjects
  Difference in weight gain between treatment groups on day 15: -1.07 kg
[5]; OLZ+MIRI vs OLZ+PBO, MMRM, P=0.044, 95% CI [−1.77, −0.02], healthy male subjects
  Difference in weight gain between treatment groups on day 8: -0.9 kg
[5]; OLZ+MIRI vs OLZ+PBO, P<0.001, healthy male subjects
  Difference in triglyceride increase on day 8: -0.53 mmol/L
[5]; OLZ+MIRI vs OLZ+PBO, P=0.007, healthy male subjects
  Difference in HOMA2-IR on day 15: −0.47
[5]; OLZ+MIRI vs OLZ+PBO, P=0.012, healthy male subjects
  Difference in HOMA2-IR on day 8: −0.44
[5]; OLZ+MIRI vs OLZ+PBO, P=0.013, healthy male subjects
  Difference in plasma insulin increase on day 8: −3.49 mIU/L
[5]; OLZ+MIRI vs OLZ+PBO, P=0.057, healthy male subjects
  Difference in triglyceride increase on day 15: -0.28 mmol/L
[5]; [12]
  HOMA2-IR level relative to baseline: less than 2 fold
  Insulin resistance (HOMA2-IR) increase from baseline, percent: about 90%
[5]; [8]
  Body weight increase from baseline on Day 8: 2.6 kg and 2.59 kg
  Body weight increase from baseline on Day 15: 3.9 kg and 3.91 kg
  HOMA2-IR increase from baseline on Day 8: 0.71
  HOMA2-IR increase from baseline on Day 15: 0.74
  Insulin increase from baseline on Day 8: 5.65 mIU/L
  Insulin increase from baseline on Day 15: 5.91 mIU/L
[5]; [9]
  Triglycerides increase from baseline on Day 8: 0.56 mmol/L
  Triglycerides increase from baseline on Day 15: 0.34 mmol/L
[5]; [10]
  Insulin increase from baseline, percent, day 8: about 92%
  Insulin increase from baseline, percent, day 15: 97%
  Triglycerides increase from baseline, percent, day 8: about 60%
  Triglycerides increase from baseline, percent, day 15: 37%
  Body weight increase from baseline, percent of baseline, day 8: about 3.6%
  Body weight increase from baseline, percent of baseline, day 15: 5.4%
[5]; human, in vivo
  ALT increase from baseline, percent, day 7: 152%
  ALT increase from baseline, percent, day 12: 528%
  AST increase from baseline, percent, day 7: 71%
  AST increase from baseline, percent, day 12: 192%
  Difference in ALT levels between treatment arms on day 12: −49.99 IU/L
  Difference in AST levels between groups on day 12: −32.24 IU/L
  Tolerability of the dose: very well tolerated
[5]; printed as between PBO and OLZ, P=0.007, healthy male subjects
  Difference in plasma insulin increase on day 15: 3.74 mIU/L
[6]; Group 3: 1 mg/kg/dose BID
  Study day from which body weight reduction became statistically significant: 36
[6]; [13]
  Body weight reduction at Day 57 vs olanzapine control Group 2 ([…] g): 13%
  Least Squares (LS) mean body weight at Day 57: 268 g
[6]; Group 3: OLZ + miricorilant 1 mg/kg/dose BID oral, Days 35-57
  Group mean body weight at Day 57: 269 g
[6]; Group 4: 2 mg/kg/dose QD
  Study day from which body weight reduction became statistically significant: 38
[6]; [14]
  Body weight reduction at Day 57 vs olanzapine control Group 2 ([…] g): 12%
  Least Squares (LS) mean body weight at Day 57: 272 g
  Loss compared with basal body weight (vehicle-only control) at the end of the study: no significant loss; also recorded: no reduction
[6]; Group 4: OLZ + miricorilant 2 mg/kg/dose QD oral, Days 35-57
  Group mean body weight at Day 57: 272 g
[6]; Group 5: 10 mg/kg/dose QD
  Study day from which body weight reduction became statistically significant: 36
[6]; [15]
  Body weight reduction at Day 57 vs olanzapine control Group 2 ([…] g): 17%
  Least Squares (LS) mean body weight at Day 57: 259 g
[6]; Group 5: OLZ + miricorilant 10 mg/kg/dose QD oral, Days 35-57
  Group mean body weight at Day 57: 258 g
[6]; all three miricorilant dose regimens with OLZ
  Food consumption by the end of the study: returned to vehicle-only levels
[6]; days 35-57, all three miricorilant regimens with OLZ, p<0.05
  Decrease in weight compared to the OLZ+vehicle group: 12-17%
[6]; [16]
  Food consumption lower compared to olanzapine-only animals: 16%-23%
  Food consumption lower compared to vehicle-only controls: 13%-20%
[6]; miricorilant 1 mg/kg BID, 2 or 10 mg/kg QD with OLZ, Days 35-57
  Mortality: no mortalities
[6]; oral, all three dose regimens, within first week of treatment (Week 6), maintained
  Effect on olanzapine-induced body weight gains and food consumption increases: completely abrogated
[7]
  Effect on olanzapine-induced weight gain in rats: prevent olanzapine-induced weight gain

## O=C1NCCN1CCN1CCC(c2cn(-c3ccc(F)cc3)c3ccc(Cl)cc23)CC1 [sertindole]
[4]
  Mean body weight increase over a period of ten weeks: 2.92 kg

## Cc1nc2n(c(=O)c1CCN1CCC(c3noc4cc(F)ccc34)CC1)CCCC2 [risperidone]
[4]; Allison et al. 2001
  Weight gained over 8-12 weeks: 2 to 3 kg

## OCCOCCN1CCN(C2=Nc3ccccc3Sc3ccccc32)CC1 [quetiapine]
[4]; Allison et al. 2001
  Weight gained after treatment for a "short time": about 3 kg

— US11903945B2, “Methods of treating antipsychotic-induced weight gain with miricorilant” (Corcept Therapeutics Incorporated, priority 2019, dated 2024)
